Measured values from US20260234157A1, “COMPOUND AND METHOD FOR TARGETED DEGRADATION OF ANDROGEN RECEPTOR” (Gan & Lee Pharmaceuticals Co., Ltd., priority 2023, published 2026).
Residue numbers refer to the chain shown, from its start.

molecular target: T1, AR protein (Homo sapiens, UniProt P10275, T878A); test: Degradation of AR protein in LNCaP cells (Western blot); format: cell-based; conditions: LNCaP cells, compound 10 nM, 8 hours, Western blot grayscale, GAPDH internal reference; read-out: Degradation rates of the AR protein in LNCaP cells, 10 nM (%)
T1 construct: degradation activity of the compounds disclosed in the present disclosure on AR protein in LNCaP cells; host or cells: LNCaP FGC
T1 sequence (P10275 1-920 T878A): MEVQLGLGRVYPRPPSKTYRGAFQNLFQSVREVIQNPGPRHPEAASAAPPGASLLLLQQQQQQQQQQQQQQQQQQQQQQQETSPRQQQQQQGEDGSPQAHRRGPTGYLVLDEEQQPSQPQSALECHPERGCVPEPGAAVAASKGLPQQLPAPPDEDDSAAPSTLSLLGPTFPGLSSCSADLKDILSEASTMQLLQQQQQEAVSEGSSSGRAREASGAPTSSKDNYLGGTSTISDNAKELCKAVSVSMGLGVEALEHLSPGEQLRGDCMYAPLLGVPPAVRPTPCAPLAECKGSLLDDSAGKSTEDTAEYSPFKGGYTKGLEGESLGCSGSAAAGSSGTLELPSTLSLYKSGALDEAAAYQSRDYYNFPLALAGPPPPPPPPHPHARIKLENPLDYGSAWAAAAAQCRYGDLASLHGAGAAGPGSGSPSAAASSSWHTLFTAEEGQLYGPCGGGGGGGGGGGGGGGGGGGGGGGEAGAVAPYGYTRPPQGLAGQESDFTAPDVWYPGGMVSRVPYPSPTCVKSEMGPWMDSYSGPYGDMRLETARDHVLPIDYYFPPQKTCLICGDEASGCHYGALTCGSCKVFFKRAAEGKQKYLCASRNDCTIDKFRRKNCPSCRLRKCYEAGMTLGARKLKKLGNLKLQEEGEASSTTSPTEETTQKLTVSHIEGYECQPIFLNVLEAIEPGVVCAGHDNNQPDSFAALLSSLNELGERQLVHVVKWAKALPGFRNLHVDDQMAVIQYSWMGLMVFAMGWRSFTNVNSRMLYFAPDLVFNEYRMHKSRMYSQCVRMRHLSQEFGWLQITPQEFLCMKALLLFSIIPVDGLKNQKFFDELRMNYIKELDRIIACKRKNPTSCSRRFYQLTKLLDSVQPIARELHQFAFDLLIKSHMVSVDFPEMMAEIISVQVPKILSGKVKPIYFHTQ
Outline: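 Percent AR degradation was derived from GAPDH-normalised Western blot band intensities (infrared detection) in LNCaP lysates.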

Row | inhibition at 0.01 µM | SMILES
1 | 14% | N#Cc1ccc(O[C@H]2CC[C@H](NC(=O)c3ccc(N4CCC(N5CCC6(CCc7cc8c(cc7O6)C(=O)N(C6CCC(=O)NC6=O)C8=O)CC5)C(F)(F)C4)nn3)CC2)cc1Cl (stereo partly drawn) [Compound 27]
2 | 58% | N#Cc1ccc(O[C@H]2CC[C@H](NC(=O)c3ccc(N4CCC5(CCc6cc7c(cc6O5)C(=O)N(C5CCC(=O)NC5=O)C7=O)CC4)nn3)CC2)cc1Cl (stereo partly drawn) [Compound 28]
3 | 28% | N#Cc1ccc(O[C@H]2CC[C@H](NC(=O)c3ccc(N4CCC5(CCC(N6CCC7(CCc8cc9c(cc8O7)C(=O)N(C7CCC(=O)NC7=O)C9=O)CC6)CC5)CC4)nn3)CC2)cc1Cl (stereo partly drawn) [Compound 30]
4 | 22% | N#Cc1ccc(O[C@H]2CC[C@H](NC(=O)c3ccc(N4CC5(CC(N6CCC7(CCc8cc9c(cc8O7)C(=O)N(C7CCC(=O)NC7=O)C9=O)CC6)C5)C4)nn3)CC2)cc1Cl (stereo partly drawn) [Compound 32]
5 | 27% | N#Cc1ccc(O[C@H]2CC[C@H](NC(=O)c3ccc(N4CC5(CCC(N6CCC7(CCc8cc9c(cc8O7)C(=O)N(C7CCC(=O)NC7=O)C9=O)CC6)CC5)C4)nn3)CC2)cc1Cl (stereo partly drawn) [Compound 33]
6 | 57% | N#Cc1ccc(O[C@H]2CC[C@H](NC(=O)c3ccc(N4CCC5(CCC(N6CCC7(CCc8cc9c(cc8O7)C(=O)N(C7CCC(=O)NC7=O)C9=O)CC6)CC5)C4)nn3)CC2)cc1Cl (stereo partly drawn) [Compound 34]

same assay, conditions: LNCaP cells, compound 100 nM, 8 hours, Western blot grayscale, GAPDH internal reference; read-out: Degradation rates of the AR protein in LNCaP cells, 100 nM (%)

Row | inhibition at 0.1 µM | SMILES
7 | 39% | N#Cc1ccc(O[C@H]2CC[C@H](NC(=O)c3ccc(N4CCC(N5CCC6(CCc7cc8c(cc7O6)C(=O)N(C6CCC(=O)NC6=O)C8=O)CC5)C(F)(F)C4)nn3)CC2)cc1Cl (stereo partly drawn) [Compound 27]
8 | 60% | N#Cc1ccc(O[C@H]2CC[C@H](NC(=O)c3ccc(N4CCC5(CCc6cc7c(cc6O5)C(=O)N(C5CCC(=O)NC5=O)C7=O)CC4)nn3)CC2)cc1Cl (stereo partly drawn) [Compound 28]
9 | 62% | N#Cc1ccc(O[C@H]2CC[C@H](NC(=O)c3ccc(N4CCC5(CCC(N6CCC7(CCc8cc9c(cc8O7)C(=O)N(C7CCC(=O)NC7=O)C9=O)CC6)CC5)CC4)nn3)CC2)cc1Cl (stereo partly drawn) [Compound 30]
10 | 53% | N#Cc1ccc(O[C@H]2CC[C@H](NC(=O)c3ccc(N4CC5(CC(N6CCC7(CCc8cc9c(cc8O7)C(=O)N(C7CCC(=O)NC7=O)C9=O)CC6)C5)C4)nn3)CC2)cc1Cl (stereo partly drawn) [Compound 32]
11 | 61% | N#Cc1ccc(O[C@H]2CC[C@H](NC(=O)c3ccc(N4CC5(CCC(N6CCC7(CCc8cc9c(cc8O7)C(=O)N(C7CCC(=O)NC7=O)C9=O)CC6)CC5)C4)nn3)CC2)cc1Cl (stereo partly drawn) [Compound 33]
12 | 70% | N#Cc1ccc(O[C@H]2CC[C@H](NC(=O)c3ccc(N4CCC5(CCC(N6CCC7(CCc8cc9c(cc8O7)C(=O)N(C7CCC(=O)NC7=O)C9=O)CC6)CC5)C4)nn3)CC2)cc1Cl (stereo partly drawn) [Compound 34]

molecular target: T2, AR protein (Homo sapiens, UniProt P10275); test: Degradation of AR protein in VCaP cells (Western blot); format: cell-based; conditions: compound at 10 nM, 8 hours, read-out: Degradation rate of the AR protein in VCaP cells, 10 nM (%)
T2 construct: degradation activity of the compounds disclosed in the present disclosure on AR protein in VCaP cells; host or cells: VCaP
T2 sequence (P10275 1-920): T1 sequence (P10275 1-920 T878A) with A878T
Outline: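 Western blot readout: AR band grayscale normalised to GAPDH, used to derive degradation rate. Lysates came from VCaP cells exposed to compound for 8 h, with solvent controls run in parallel.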

Row | inhibition at 0.01 µM | SMILES
13 | 33% | N#Cc1ccc(O[C@H]2CC[C@H](NC(=O)c3ccc(N4CCC(N5CCC6(CCc7cc8c(cc7O6)C(=O)N(C6CCC(=O)NC6=O)C8=O)CC5)C(F)(F)C4)nn3)CC2)cc1Cl (stereo partly drawn) [Compound 27]
14 | 9% | N#Cc1ccc(O[C@H]2CC[C@H](NC(=O)c3ccc(N4CCC5(CCc6cc7c(cc6O5)C(=O)N(C5CCC(=O)NC5=O)C7=O)CC4)nn3)CC2)cc1Cl (stereo partly drawn) [Compound 28]
15 | 39% | N#Cc1ccc(O[C@H]2CC[C@H](NC(=O)c3ccc(N4CCC5(CCC(N6CCC7(CCc8cc9c(cc8O7)C(=O)N(C7CCC(=O)NC7=O)C9=O)CC6)CC5)CC4)nn3)CC2)cc1Cl (stereo partly drawn) [Compound 30]
16 | 58% | N#Cc1ccc(O[C@H]2CC[C@H](NC(=O)c3ccc(N4CC5(CC(N6CCC7(CCc8cc9c(cc8O7)C(=O)N(C7CCC(=O)NC7=O)C9=O)CC6)C5)C4)nn3)CC2)cc1Cl (stereo partly drawn) [Compound 32]
17 | 49% | N#Cc1ccc(O[C@H]2CC[C@H](NC(=O)c3ccc(N4CC5(CCC(N6CCC7(CCc8cc9c(cc8O7)C(=O)N(C7CCC(=O)NC7=O)C9=O)CC6)CC5)C4)nn3)CC2)cc1Cl (stereo partly drawn) [Compound 33]
18 | 39% | N#Cc1ccc(O[C@H]2CC[C@H](NC(=O)c3ccc(N4CCC5(CCC(N6CCC7(CCc8cc9c(cc8O7)C(=O)N(C7CCC(=O)NC7=O)C9=O)CC6)CC5)C4)nn3)CC2)cc1Cl (stereo partly drawn) [Compound 34]

same assay, conditions: compound at 100 nM, 8 hours, read-out: Degradation rate of the AR protein in VCaP cells, 100 nM (%)

Row | inhibition at 0.1 µM | SMILES
19 | 44% | N#Cc1ccc(O[C@H]2CC[C@H](NC(=O)c3ccc(N4CCC(N5CCC6(CCc7cc8c(cc7O6)C(=O)N(C6CCC(=O)NC6=O)C8=O)CC5)C(F)(F)C4)nn3)CC2)cc1Cl (stereo partly drawn) [Compound 27]
20 | 35% | N#Cc1ccc(O[C@H]2CC[C@H](NC(=O)c3ccc(N4CCC5(CCc6cc7c(cc6O5)C(=O)N(C5CCC(=O)NC5=O)C7=O)CC4)nn3)CC2)cc1Cl (stereo partly drawn) [Compound 28]
21 | 64% | N#Cc1ccc(O[C@H]2CC[C@H](NC(=O)c3ccc(N4CCC5(CCC(N6CCC7(CCc8cc9c(cc8O7)C(=O)N(C7CCC(=O)NC7=O)C9=O)CC6)CC5)CC4)nn3)CC2)cc1Cl (stereo partly drawn) [Compound 30]
22 | 64% | N#Cc1ccc(O[C@H]2CC[C@H](NC(=O)c3ccc(N4CC5(CC(N6CCC7(CCc8cc9c(cc8O7)C(=O)N(C7CCC(=O)NC7=O)C9=O)CC6)C5)C4)nn3)CC2)cc1Cl (stereo partly drawn) [Compound 32]
23 | 52% | N#Cc1ccc(O[C@H]2CC[C@H](NC(=O)c3ccc(N4CC5(CCC(N6CCC7(CCc8cc9c(cc8O7)C(=O)N(C7CCC(=O)NC7=O)C9=O)CC6)CC5)C4)nn3)CC2)cc1Cl (stereo partly drawn) [Compound 33]
24 | 51% | N#Cc1ccc(O[C@H]2CC[C@H](NC(=O)c3ccc(N4CCC5(CCC(N6CCC7(CCc8cc9c(cc8O7)C(=O)N(C7CCC(=O)NC7=O)C9=O)CC6)CC5)C4)nn3)CC2)cc1Cl (stereo partly drawn) [Compound 34]

tested on: LNCaP FGC cells; test: Inhibition of proliferation of LNCaP cells (WST-8); format: cell-based; conditions: Homo sapiens, LNCaP, 96 h, LNCaP FGC cells, 96 hours, WST-8 absorbance at 450 nm; read-out: IC50 for inhibiting the proliferation of LNCaP cells
Description: The cells were cultured in a cell culture incubator with 5% CO2 at 37° C. overnight. […] On the sixth day, 96 well plates were taken out, and 20 μL of WST-8 (Beytime, C0040) reagent was added to each well.

Row | IC50 | SMILES
25 | 0.11 µM | N#Cc1ccc(O[C@H]2CC[C@H](NC(=O)c3ccc(N4CCC(N5CCC6(CCc7cc8c(cc7O6)C(=O)N(C6CCC(=O)NC6=O)C8=O)CC5)C(F)(F)C4)nn3)CC2)cc1Cl (stereo partly drawn) [Compound 27]
26 | 3.9 µM | N#Cc1ccc(O[C@H]2CC[C@H](NC(=O)c3ccc(N4CCC5(CCc6cc7c(cc6O5)C(=O)N(C5CCC(=O)NC5=O)C7=O)CC4)nn3)CC2)cc1Cl (stereo partly drawn) [Compound 28]
27 | 1.9 µM | N#Cc1ccc(O[C@H]2CC[C@H](NC(=O)c3ccc(N4CCC5(CCC(N6CCC7(CCc8cc9c(cc8O7)C(=O)N(C7CCC(=O)NC7=O)C9=O)CC6)CC5)CC4)nn3)CC2)cc1Cl (stereo partly drawn) [Compound 30]
28 | 3.6 µM | N#Cc1ccc(O[C@H]2CC[C@H](NC(=O)c3ccc(N4CC5(CC(N6CCC7(CCc8cc9c(cc8O7)C(=O)N(C7CCC(=O)NC7=O)C9=O)CC6)C5)C4)nn3)CC2)cc1Cl (stereo partly drawn) [Compound 32]
29 | 2.21 µM | N#Cc1ccc(O[C@H]2CC[C@H](NC(=O)c3ccc(N4CC5(CCC(N6CCC7(CCc8cc9c(cc8O7)C(=O)N(C7CCC(=O)NC7=O)C9=O)CC6)CC5)C4)nn3)CC2)cc1Cl (stereo partly drawn) [Compound 33]
30 | 1.12 µM | N#Cc1ccc(O[C@H]2CC[C@H](NC(=O)c3ccc(N4CCC5(CCC(N6CCC7(CCc8cc9c(cc8O7)C(=O)N(C7CCC(=O)NC7=O)C9=O)CC6)CC5)C4)nn3)CC2)cc1Cl (stereo partly drawn) [Compound 34]

tested on: VCaP cells; test: Inhibition of proliferation of VCaP cells (WST-8); format: cell-based; conditions: Homo sapiens; VCaP cells, 168 hours, WST-8 absorbance at 450 nm; read-out: IC50 for inhibiting the proliferation of VCaP cells
Outline: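 Proliferation was read by WST-8 on day nine. Cells were VCaP FGC, seeded at 15000 cells per well in 10% FBS DMEM and kept at 37° C with 5% CO2.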

Row | IC50 | SMILES
31 | 0.38 µM | N#Cc1ccc(O[C@H]2CC[C@H](NC(=O)c3ccc(N4CCC(N5CCC6(CCc7cc8c(cc7O6)C(=O)N(C6CCC(=O)NC6=O)C8=O)CC5)C(F)(F)C4)nn3)CC2)cc1Cl (stereo partly drawn) [Compound 27]
32 | 6.2 µM | N#Cc1ccc(O[C@H]2CC[C@H](NC(=O)c3ccc(N4CCC5(CCc6cc7c(cc6O5)C(=O)N(C5CCC(=O)NC5=O)C7=O)CC4)nn3)CC2)cc1Cl (stereo partly drawn) [Compound 28]
33 | 0.85 µM | N#Cc1ccc(O[C@H]2CC[C@H](NC(=O)c3ccc(N4CCC5(CCC(N6CCC7(CCc8cc9c(cc8O7)C(=O)N(C7CCC(=O)NC7=O)C9=O)CC6)CC5)CC4)nn3)CC2)cc1Cl (stereo partly drawn) [Compound 30]
34 | 0.52 µM | N#Cc1ccc(O[C@H]2CC[C@H](NC(=O)c3ccc(N4CC5(CC(N6CCC7(CCc8cc9c(cc8O7)C(=O)N(C7CCC(=O)NC7=O)C9=O)CC6)C5)C4)nn3)CC2)cc1Cl (stereo partly drawn) [Compound 32]
35 | 1.7 µM | N#Cc1ccc(O[C@H]2CC[C@H](NC(=O)c3ccc(N4CC5(CCC(N6CCC7(CCc8cc9c(cc8O7)C(=O)N(C7CCC(=O)NC7=O)C9=O)CC6)CC5)C4)nn3)CC2)cc1Cl (stereo partly drawn) [Compound 33]
36 | 4.2 µM | N#Cc1ccc(O[C@H]2CC[C@H](NC(=O)c3ccc(N4CCC5(CCC(N6CCC7(CCc8cc9c(cc8O7)C(=O)N(C7CCC(=O)NC7=O)C9=O)CC6)CC5)C4)nn3)CC2)cc1Cl (stereo partly drawn) [Compound 34]
